From article PMC11811597, “Phenomics‐Based Discovery of Novel Orthosteric Choline Kinase Inhibitors” (Angewandte Chemie (International Ed. in English), 2025)

How the values were obtained:
PRCP = experiment: Competitive affinity-based chemoproteomics (UNC0965 matrix), PBMC cell extract; assay type: binding, human; conditions: 20 µM competitor, n=2
Protocol: (§1) described.[2] Lysates were precleared with bead slurry (100 μL) for 30 min at 4 °C and then treated with UNC0638 or UNC0737 (20 μM) or DMSO control for 30 min at 4 °C followed by incubation with affinity matrix for 2 h at 4 °C. Affinity matrices were washed with buffer A (5 mL) and proteins eluted with 100 μL of 2x Laemmli sample buffer, 100 mM DTT, in PBS and heating for 10 min at 90 °C.
(§2) Eluents (70 µL) were diluted in 0.1 M Tris (pH 7.8) to 200 µL, reduced with 5 mM DTT for 30 min at RT, and alkylated with 20 mM iodoacetamide for 30 min at RT in the dark. Proteins were precipitated by sequential addition of MeOH (600 µL), CHCl3 (150 µL) and H2O (450 µL), pelleted (17,000 × g, 5 min), washed with further MeOH (2 × 600 µL), and re-pelleted. Air dried pellets were resuspended in 50 μL 6 M urea (pH 7.8) by vortexing and then diluted with 250 μL H2O before adding 1 µg trypsin for overnight incubation at 37 °C. The digests were acidified with FA (1% v/v final concentration), desalted using SOLA HRP SPE Cartridges (Thermo Fisher), eluted with 69% v/v MeCN, 0.1% v/v FA in H2O (600 μL) and dried in vacuo. Dried peptides were stored at -20 °C before resuspension in 2% v/v MeCN, 0.1% v/v FA in H2O (20 μL) for LC-MS/MS analysis.
(§3) LC-MS/MS Data Acquisition
(§4) Digested samples were analysed by nano-UPLC–MS/MS using a Dionex Ultimate 3000 nano UPLC fitted with an EASY spray column (75 μm × 500 mm, 2 μm particle size, Thermo Scientific), coupled to an Orbitrap Q Exactive instrument. A 60 min gradient of 0.1% (v/v) formic acid in 5 % (v/v) DMSO to 0.1% (v/v) formic acid with 35% (v/v) acetonitrile in 5 % (v/v) DMSO at a flow rate of 250 nL min−1 was used. The instrument was operated in a data-dependant mode, with survey scans acquired at a resolution of 70,000 at 200 m/z and the 15 most abundant precursors selected for HCD fragmentation with an AGC target of […] ions.
(§5) Raw data was processed using MaxQuant[3] version 2.0.1.0 and the reference complete human proteome FASTA file (UniProt, downloaded 05.08.21). Label Free Quantification (LFQ) and Match Between Runs were selected; Cysteine carbamidomethylation was selected as a fixed modification, and methionine oxidation and asparagine deamidation as variable modifications. Default settings for identification and quantification were used. Specifically, a minimum peptide length of 7, a maximum of 2 missed cleavage sites, and a maximum of 5 labelled amino acids per peptide were allowed.
(§6) Through selection of the ‘trypsin/P’ general setting, peptide bond cleavage at arginine or lysine (followed by any amino acid) was considered during in silico digest of the reference proteome. […]
(§7) mode selected for both identification and quantification of proteins (razor peptides are uniquely assigned to protein groups and not to individual proteins).

PWP1 = experiment: as above; assay type: binding, human; conditions: 20 µM competitor, n=2
Protocol: as §1, §2, §3, §4, §5, §6, §7

CHKA = CHKA (Homo sapiens, UniProt P35790); experiment: Differential scanning fluorimetry (DSF); assay type: binding; design: host or cells: E. coli BL21(DE3); conditions: 10 µM compound, 2 µM CHKA
Protocol: mM NaCl, 5% glycerol, 500 mM imidazole, 0.5% TCEP, pH 7.5), the eluent was concentrated, and further purified by size exclusion chromatography using a HiLoad 16/600 Superdex S200 column (Cytiva) pre-equilibrated in Buffer C (20 mM HEPES, 150 mM NaCl, pH 7.5). The resulting protein purity was assessed by SDS-PAGE, and protein identity was confirmed by tryptic digest analysis. Protein concentration was determined to be 35.5 mg/mL, and was calculated using a theoretical molar extinction coefficient of 58830 M-1cm-1 as determined by ProtParam.[5] […]
Differential Scanning Fluorimetry (DSF)
DSF buffer (20 mM HEPES, 150 mM NaCl, 0.5 mM TCEP, pH 7.5) containing 5x SYPRO Orange (Thermo Fisher Scientific) and CHKA (2 µM) was incubated with 10 µM compound at 2% DMSO final concentration in a 96-well semi-skirted real time PCR plate. Fluorescence was measured in each well over a 40-80 °C gradient using a Stratagen MX3005p qPCR instrument (Agilent Technologies). […]

Chain of CHKA (P35790 75-457 limits assumed): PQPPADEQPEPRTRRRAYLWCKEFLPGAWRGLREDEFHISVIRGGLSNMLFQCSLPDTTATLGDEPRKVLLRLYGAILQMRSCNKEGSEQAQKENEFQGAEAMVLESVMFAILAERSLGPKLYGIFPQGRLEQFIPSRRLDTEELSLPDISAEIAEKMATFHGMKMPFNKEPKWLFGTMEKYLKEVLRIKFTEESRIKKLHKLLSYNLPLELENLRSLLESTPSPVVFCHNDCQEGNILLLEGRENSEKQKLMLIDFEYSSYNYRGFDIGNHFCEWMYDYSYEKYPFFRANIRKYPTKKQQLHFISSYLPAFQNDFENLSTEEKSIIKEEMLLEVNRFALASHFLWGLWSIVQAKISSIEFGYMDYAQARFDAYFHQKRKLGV

SMILES	FC vs DMSO (log2 competition), PRCP (PRCP)	FC vs DMSO (log2 competition), PWP1 (PWP1)	thermal stabilisation of CHKA (DSF) (CHKA)
COc1cc2c(NC3CCN(C(C)C)CC3)nc(C3CCCCC3)nc2cc1OCCCN1CCCC1 [UNC0638]	-3.268	-2.002	thermal stabilisation
COc1cc2c(N(C)C3CCN(C(C)C)CC3)nc(C3CCCCC3)nc2cc1OCCCN1CCCC1 [UNC0737]	-0.4338	-0.1275	thermal stabilisation
